Consider 3 compounds from publication PMC6909939, “Study on the Interactions Between Caffeoylquinic Acids With Bovine Serum Albumin: Spectroscopy, Antioxidant Activity, LC-MS^n, and Molecular Docking Approach” (Frontiers in Chemistry, 2019).

Experiment [1] addresses T1, bovine serum albumin (BSA) (Bos taurus, UniProt P02769).
T1 construct: purchased AMRESCO
Put plainly: Fluorescence quenching of BSA by CQAs (Stern-Volmer, double-log, Van't Hoff). As to conditions: for ΔH / ΔS: 300-310 K; for Kd: read-out: Ka (converted); for λa-λj (shift of BSA fluorescence emission): CQA 0 to 5.0 × 10^−6 M. The class given is binding. As for the experimental part: Fluorescence analysis was determined with the LS-45 fluorophotometer (PerkinElmer, USA). […] The synchronous fluorescence spectrum was recorded at Δλ = 15/60 nm at 300 K. The concentration of BSA was set as 0.2 × 10^−6 M, and the concentrations of CQAs were set as 0~5.0 × 10^−6 M by successive additions. The 3D fluorescence spectrum of BSA (0.2 × 10^−6 M) and the BSA-drug (10:1 mol ratio of protein to ligand) complexes were determined at 200–350 nm in 5 nm increments, and the emission spectrum was set as between 200 and 500 nm.
Static and dynamic quenching were two kinds of quenching mechanisms. Both of them followed the equation of Stern-Volmer (Tang and Jia, [2013]): […]
where F0 and F were the fluorescence intensities of BSA with or without CQAs, respectively; KSV were the Stern-Volmer quenching constants; [Q] was the concentration of CQAs.
Binding constants and binding sites could be determined by double logarithmic curve equation (Hemmateenejad et al., [2012]):
(2) logF0-F/F=logKa+nlog[Q]
where F0 and F were the fluorescence intensities of BSA with or without CQAs, respectively; [Q] was the concentrations of CQAs; Ka was the binding constants and n was the number of binding sites.
The binding force between drugs and BSA was non-covalent interaction, like hydrogen-bond interaction, electrostatic forces, hydrophobic effects and Van der Waals forces (Cheng et al., [2015]). The binding parameters could be employed to determine the types of binding forces. The value of ΔH (enthalpy change) and ΔS (entropy changes) could be determined by Van't Hoff equation: […]
where Ka were the binding constants, R were the gas constants and T was the temperatures. Free energy changes (ΔG) could be determined by the following equation: […]

A further experiment has as its target T2, BSA (Bos taurus, UniProt P02769).
T2 construct: purchased AMRESCO
Kind of experiment: CD measurement of BSA secondary structure (α-helix content). Also noted: species or system bovine. As for the experimental part: The J-815 automatic recording spectropolarimeter (Japan) equipped with 1.0 mm path length quartz cuvettes was employed to determine the CD spectrum of BSA and CQAs-BSA. All the CD spectra were recorded from 190 to 250 nm at 300 K, and the scanning speeds were all set as 50 nm·min^−1. The concentration of BSA and CQAs was 2.0 × 10^−6 and 10.0 × 10^−6 M, respectively. Each spectrum was scanned for successive three times and corrected by corresponding buffer solution.
Far-UV CD spectrum could monitor the secondary structures changes of BSA. To further study the interaction of CQAs and BSA and accurately detect the changes of the secondary structures of BSA, CD spectra of BSA was performed in with or without CQAs in different solvent systems.

Another experiment concerns bovine serum albumin. To be noted: ref Li et al., 2010; cited from earlier work.

“And” between values parts separate entries of the source, which are not always exact repeats. Equal values may be shown once. Read-outs that look alike come from different tables or passages of the source.

T2 sequence (P02769 25-607): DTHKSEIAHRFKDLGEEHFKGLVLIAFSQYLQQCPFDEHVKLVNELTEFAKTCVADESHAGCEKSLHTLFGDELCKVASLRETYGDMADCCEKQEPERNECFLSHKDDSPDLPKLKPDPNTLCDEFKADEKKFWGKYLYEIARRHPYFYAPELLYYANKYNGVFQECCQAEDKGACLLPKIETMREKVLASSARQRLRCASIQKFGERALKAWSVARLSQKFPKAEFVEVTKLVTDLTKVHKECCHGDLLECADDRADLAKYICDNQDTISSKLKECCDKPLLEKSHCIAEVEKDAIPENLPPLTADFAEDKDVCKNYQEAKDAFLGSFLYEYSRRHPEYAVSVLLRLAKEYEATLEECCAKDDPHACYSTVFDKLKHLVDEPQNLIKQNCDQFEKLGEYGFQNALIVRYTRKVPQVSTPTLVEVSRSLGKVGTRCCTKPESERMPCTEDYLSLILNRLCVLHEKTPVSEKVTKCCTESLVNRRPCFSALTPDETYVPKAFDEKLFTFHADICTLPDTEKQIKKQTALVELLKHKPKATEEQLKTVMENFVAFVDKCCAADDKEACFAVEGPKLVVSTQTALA
T1 sequence (P02769 25-607): as above

`O=C(C=Cc1ccc(O)c(O)c1)OC1CC(O)(C(=O)O)CC(O)C1O` (stereo not shown) [3-CQA, 3-O-caffeoylquinic acid]: in experiment [1], the Fluorescence quenching rate was 40.14% and 32.93%. Moreover, the ΔG in experiment [1] (H2O, 305 K) was -35.71 kJ/mol; in experiment [1] (H2O, 310 K) it was -33.68 kJ/mol; in experiment [1] (PBS, 310 K), -33.81 kJ/mol; in experiment [1] (Tris-HCl, 300 K), -39.74 kJ/mol. Further, on BSA (Tris-HCl buffer), the “increase of α-helix content of BSA” value amounted to 5.15%.
Consider `O=C(C=Cc1ccc(O)c(O)c1)OC1C(O)CC(O)(C(=O)O)CC1O` (stereo not shown) [4-CQA, 4-O-caffeoylquinic acid], for which the results for the Fluorescence quenching rate in experiment [1] (H2O), in experiment [1] (PBS) and in experiment [1] (Tris-HCl) were 30.99%, 22.65% and 35.83%, respectively. For the same compound, the ΔH is -251.26 kJ/mol in experiment [1] (H2O), -271.59 kJ/mol in experiment [1] (PBS) and -217.90 kJ/mol in experiment [1] (Tris-HCl). In addition, the ΔS in experiment [1] (H2O) is -705.46 J·mol^−1·k^−1; in experiment [1] (PBS), -774.09 J·mol^−1·k^−1; in experiment [1] (Tris-HCl), -588.56 J·mol^−1·k^−1. The KSV in experiment [1] (H2O, 300 K) was determined as 83600 L/mol; in experiment [1] (H2O, 305 K) it was 60500 L/mol; in experiment [1] (H2O, 310 K), 57700 L/mol; in experiment [1] (PBS, 300 K) it was 132900 L/mol; in experiment [1] (PBS, 305 K) it was 98000 L/mol; in experiment [1] (PBS, 310 K) it was 60000 L/mol. Besides, the KSV in experiment [1] (Tris-HCl, 300 K) stood at 189400 L/mol; in experiment [1] (Tris-HCl, 305 K), 120400 L/mol; in experiment [1] (Tris-HCl, 310 K) it was 47100 L/mol. Moreover, the “n (number of binding sites)” value in experiment [1] (H2O, 300 K) was 1.3458; in experiment [1] (H2O, 305 K), 1.3177; in experiment [1] (H2O, 310 K), 1.1102; in experiment [1] (PBS, 300 K), 1.3138; in experiment [1] (PBS, 305 K), 1.2398; in experiment [1] (PBS, 310 K), 1.0835. The “n (number of binding sites)” value is on record as 1.4214 in experiment [1] (Tris-HCl, 300 K); 1.2871 in experiment [1] (Tris-HCl, 305 K); 1.2434 in experiment [1] (Tris-HCl, 310 K). Besides, the ΔG in experiment [1] (H2O, 300 K) was -39.62 kJ/mol; in experiment [1] (H2O, 305 K) it was -36.09 kJ/mol; in experiment [1] (H2O, 310 K), -32.57 kJ/mol; in experiment [1] (PBS, 300 K), -39.36 kJ/mol; in experiment [1] (PBS, 305 K), -35.49 kJ/mol; in experiment [1] (PBS, 310 K), -31.62 kJ/mol. Also, the ΔG was -41.33 kJ/mol in experiment [1] (Tris-HCl, 300 K); -38.40 kJ/mol in experiment [1] (Tris-HCl, 305 K); -35.45 kJ/mol in experiment [1] (Tris-HCl, 310 K). Also, the Kd in experiment [1] (H2O, 300 K) is 173 nM; in experiment [1] (H2O, 305 K) it was 347 nM; in experiment [1] (H2O, 310 K) it was 4520 nM; in experiment [1] (PBS, 300 K), 175 nM; in experiment [1] (PBS, 305 K) it was 532 nM; in experiment [1] (PBS, 310 K), 5920 nM. In addition, the Kd in experiment [1] (Tris-HCl, 300 K) is 30.1 nM; in experiment [1] (Tris-HCl, 305 K), 238 nM; in experiment [1] (Tris-HCl, 310 K), 1130 nM. Moreover, the “λa-λj (shift of BSA fluorescence emission)” value is listed as -5.5 nm in experiment [1] (H2O), -4 nm in experiment [1] (PBS) and 3.5 nm in experiment [1] (Tris-HCl). For the same compound, in experiment [1] (Tris-HCl), the “binding affinity change (times) when temperature rises from 300 to 310 K” value is listed as 37.4. Also, the entries for the “increase of α-helix content of BSA” value on BSA (H2O), on BSA (PBS buffer) and on BSA (Tris-HCl buffer) were 4.84%, 1.97% and 14.14%, respectively.
As to `O=C(/C=C/c1ccc(O)c(O)c1)O[C@@H]1C[C@](O)(C(=O)O)C[C@@H](O)[C@H]1O` [5-CQA, 5-O-caffeoylquinic acid], in experiment [1], the Fluorescence quenching rate was 35.34% and 32.09%. Further, the “n (number of binding sites)” value in experiment [1] stood at 0.9251. Also, the ΔG in experiment [1] (Tris-HCl, 300 K) was -42.59 kJ/mol; in experiment [1] (Tris-HCl, 305 K) it was -38.71 kJ/mol; in experiment [1] (Tris-HCl, 310 K) it was -34.83 kJ/mol. Further, the “increase of α-helix content of BSA” value came to 0.69% on BSA (H2O), 0.08% at BSA (PBS buffer) and 8.16% at BSA (Tris-HCl buffer). Besides, the binding constant entry in the experiment with bovine serum albumin is reported as “higher than that of caffeic acid”.
